Measured values as given in ChEMBL document CHEMBL5325401, “Computer-aided identification, synthesis, and biological evaluation of DNA polymerase η inhibitors for the treatment of cancer” (Eur J Med Chem, 2023).
In brackets after ≈: the same amount, converted by molar mass. Activity calls are given as the source filed them. The calls are words filed in the database; no cut-off is given here.

Tests used:
A549 [1] = test: Antagonistic antiproliferative activity against human A549 cells assessed as combination index at 20 uM incubated for 48 hrs in presence of 12.5 uM cisplatin by MTT assay; assay type: functional
A549 [2] = test: Antiproliferative activity against human A549 cells assessed as cisplatin LD50 at 30 uM incubated for 48 hrs in presence of cisplatin by MTT assay; assay type: functional; details: read-out: LD50 (the source's name)
A549 [3] = test: Additive antiproliferative activity against human A549 cells assessed as combination index at 30 uM incubated for 48 hrs in presence of 12.5 uM cisplatin by MTT assay; assay type: functional
[4] = Kinetic solubility of compound in neutral buffer at pH 7.4 at 250 uM measured after 24 hrs by UPLC/MS analysis; assay type: physicochemical; details: read-out: Kinetic_solubility
A549 [5] = test: Additive antiproliferative activity against human A549 cells assessed as combination index at 20 uM incubated for 48 hrs in presence of 6 uM cisplatin by MTT assay; assay type: functional
DNA polymerase eta = molecular target: T1, DNA polymerase eta (Homo sapiens, UniProt Q9Y253); test: Inhibition of C-terminal 6xHis-tagged human DNA polymerase eta (1 to 511 residues) expressed in Escherichia coli BL21 DE3 using 5'-IRD700-GCAGGTCGACTCCAAAG-3' primer/ 5'-TCGGTACCGGGTTAGCCTTTGGAGTCGACCTGC-3' template as DNA substrate incubated for 60 mins in presence of Mg2+ by bromophenol blue staining based assay
T1 sequence (Q9Y253 whole entry): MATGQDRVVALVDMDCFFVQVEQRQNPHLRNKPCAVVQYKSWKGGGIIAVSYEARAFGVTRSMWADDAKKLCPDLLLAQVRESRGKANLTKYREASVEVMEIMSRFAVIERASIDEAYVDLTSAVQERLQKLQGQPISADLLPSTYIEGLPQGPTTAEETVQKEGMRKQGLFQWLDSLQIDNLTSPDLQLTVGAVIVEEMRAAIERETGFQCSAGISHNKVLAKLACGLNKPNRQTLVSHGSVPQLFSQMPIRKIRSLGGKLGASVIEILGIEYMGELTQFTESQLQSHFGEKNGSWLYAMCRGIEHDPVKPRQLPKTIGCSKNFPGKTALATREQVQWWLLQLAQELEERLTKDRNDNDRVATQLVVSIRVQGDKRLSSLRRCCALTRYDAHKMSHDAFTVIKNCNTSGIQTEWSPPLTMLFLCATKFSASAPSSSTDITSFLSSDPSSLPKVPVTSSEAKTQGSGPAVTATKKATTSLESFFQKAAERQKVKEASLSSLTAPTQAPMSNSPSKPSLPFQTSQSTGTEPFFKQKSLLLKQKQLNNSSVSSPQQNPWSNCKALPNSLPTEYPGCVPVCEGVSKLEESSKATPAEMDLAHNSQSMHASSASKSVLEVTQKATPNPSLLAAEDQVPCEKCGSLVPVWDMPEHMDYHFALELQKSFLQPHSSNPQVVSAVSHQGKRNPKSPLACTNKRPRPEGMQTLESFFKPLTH

[6] = Metabolic stability in mouse liver microsome assessed as half life at 4.6 uM incubated upto 60 mins by LC/MS-MS analysis; assay type: ADME; details: liver microsomes
[7] = Metabolic stability in mouse plasma assessed as half life at 2 uM incubated upto 120 mins by UPLC/MS analysis; assay type: ADME, cell-free
HEK293 = test: (§1) Antiproliferative activity against HEK293 cells incubated for 48 hrs by MTT assay; assay type: toxicity, cell-based; details: human, hek293, 48 h
OVCAR-3 [8] = test: Antiproliferative activity against human OVCAR-3 cells incubated for 48 hrs by MTT assay; assay type: functional; details: read-out: LD50 (the source's name)
OVCAR-3 [9] = test: Antagonistic antiproliferative activity against human OVCAR-3 cells assessed as combination index at 10 uM incubated for 48 hrs in presence of 12.5 uM cisplatin by MTT assay; assay type: functional
A-375 [10] = test: Antiproliferative activity against human A-375 cells incubated for 48 hrs by MTT assay; assay type: functional; details: read-out: LD50 (the source's name)
A-375 [11] = test: Additive antiproliferative activity against human A-375 cells assessed as combination index at 10 uM incubated for 48 hrs in presence of 6 uM cisplatin by MTT assay; assay type: functional
A-375 [12] = test: Synergistic antiproliferative activity against human A-375 cells assessed as combination index at 50 uM incubated for 48 hrs in presence of 12.5 uM cisplatin by MTT assay; assay type: functional
OVCAR-3 [13] = test: Antiproliferative activity against human OVCAR-3 cells assessed as cisplatin LD50 at 5 uM incubated for 48 hrs in presence of cisplatin by MTT assay; assay type: functional; details: read-out: LD50 (the source's name)
A549 [14] = test: Additive antiproliferative activity against human A549 cells assessed as combination index at 30 uM incubated for 48 hrs in presence of 6 uM cisplatin by MTT assay; assay type: functional
A549 [15] = test: Antiproliferative activity against human A549 cells assessed as cisplatin LD50 at 20 uM incubated for 48 hrs in presence of cisplatin by MTT assay; assay type: functional; details: read-out: LD50 (the source's name)
[16] = Antiproliferative activity against HEK293 cells incubated for 72 hrs by MTT assay; assay type: toxicity, cell-based; details: human, read-out: LD50
OVCAR-3 [17] = test: Antiproliferative activity against human OVCAR-3 cells assessed as cisplatin LD50 at 10 uM incubated for 48 hrs in presence of cisplatin by MTT assay; assay type: functional; details: read-out: LD50 (the source's name)
A549 [18] = test: Antiproliferative activity against human A549 cells incubated for 48 hrs by MTT assay; assay type: functional; details: read-out: LD50 (the source's name)
A-375 [19] = test: Antiproliferative activity against human A-375 cells assessed as cisplatin LD50 at 10 uM incubated for 48 hrs in presence of cisplatin by MTT assay; assay type: functional; details: read-out: LD50 (the source's name)
A-375 [20] = test: Antiproliferative activity against human A-375 cells assessed as cisplatin LD50 at 30 uM incubated for 48 hrs in presence of cisplatin by MTT assay; assay type: functional; details: read-out: LD50 (the source's name)
A-375 [21] = test: Antiproliferative activity against human A-375 cells assessed as cisplatin LD50 at 20 uM incubated for 48 hrs in presence of cisplatin by MTT assay; assay type: functional; details: read-out: LD50 (the source's name)
[22] = Upregulation of phosphorylated gamma-H2AX level in human OVCAR-3 cells assessed as fold increase in activity at 20 uM incubated for 24 hrs by in presence of cisplatin by immunofluorescence based microscopy relative to cisplatin; assay type: functional
OVCAR-3 [23] = test: Additive antiproliferative activity against human OVCAR-3 cells assessed as combination index at 10 uM incubated for 48 hrs in presence of 6 uM cisplatin by MTT assay; assay type: functional
[24] = Upregulation of phosphorylated gamma-H2AX level in human A375 cells assessed as fold increase in activity at 20 uM incubated for 24 hrs by in presence of cisplatin by immunofluorescence based microscopy relative to cisplatin; assay type: functional, A-375
A549 [25] = test: Synergistic antiproliferative activity against human A549 cells assessed as combination index at 100 uM incubated for 48 hrs in presence of 6 uM cisplatin by MTT assay; assay type: functional
A549 [26] = test: Synergistic antiproliferative activity against human A549 cells assessed as combination index at 50 uM incubated for 48 hrs in presence of 6 uM cisplatin by MTT assay; assay type: functional
OVCAR-3 [27] = test: Antiproliferative activity against human OVCAR-3 cells assessed as cisplatin LD50 at 75 uM incubated for 48 hrs in presence of cisplatin by MTT assay; assay type: functional; details: read-out: LD50 (the source's name)
OVCAR-3 [28] = test: Synergistic antiproliferative activity against human OVCAR-3 cells assessed as combination index at 50 uM incubated for 48 hrs in presence of 12.5 uM cisplatin by MTT assay; assay type: functional
[29] = as §1; assay type: toxicity, cell-based; details: human, HEK293 cells, read-out: LD50
OVCAR-3 [30] = test: Synergistic antiproliferative activity against human OVCAR-3 cells assessed as combination index at 75 uM incubated for 48 hrs in presence of 6 uM cisplatin by MTT assay; assay type: functional
A549 [31] = test: Synergistic antiproliferative activity against human A549 cells assessed as combination index at 50 uM incubated for 48 hrs in presence of 12.5 uM cisplatin by MTT assay; assay type: functional
A-375 [32] = test: Synergistic antiproliferative activity against human A-375 cells assessed as combination index at 35 uM incubated for 48 hrs in presence of 6 uM cisplatin by MTT assay; assay type: functional
OVCAR-3 [33] = test: Antiproliferative activity against human OVCAR-3 cells assessed as cisplatin LD50 at 50 uM incubated for 48 hrs in presence of cisplatin by MTT assay; assay type: functional; details: read-out: LD50 (the source's name)
A-375 [34] = test: Antiproliferative activity against human A-375 cells assessed as cisplatin LD50 at 50 uM incubated for 48 hrs in presence of cisplatin by MTT assay; assay type: functional; details: read-out: LD50 (the source's name)
A549 [35] = test: Antiproliferative activity against human A549 cells assessed as cisplatin LD50 at 50 uM incubated for 48 hrs in presence of cisplatin by MTT assay; assay type: functional; details: read-out: LD50 (the source's name)
A549 [36] = test: Antiproliferative activity against human A549 cells assessed as cisplatin LD50 at 100 uM incubated for 48 hrs in presence of cisplatin by MTT assay; assay type: functional; details: read-out: LD50 (the source's name)
A-375 [37] = test: Upregulation of phosphorylated gamma-H2AX level in human A375 cells at 30 uM incubated for 48 hrs by in presence of cisplatin by Western blot analysis; assay type: functional, cell-based
OVCAR-3 [38] = test: Synergistic antiproliferative activity against human OVCAR-3 cells assessed as combination index at 50 uM incubated for 48 hrs in presence of 6 uM cisplatin by MTT assay; assay type: functional
A-375 [39] = test: Antiproliferative activity against human A-375 cells assessed as cisplatin LD50 at 35 uM incubated for 48 hrs in presence of cisplatin by MTT assay; assay type: functional; details: read-out: LD50 (the source's name)
A-375 [40] = test: Upregulation of phosphorylated gamma-H2AX level in human A375 cells incubated for 48 hrs by Western blot analysis; assay type: functional, cell-based; details: dose 30.0 µM
A549 [41] = test: Synergistic antiproliferative activity against human A549 cells assessed as combination index at 100 uM incubated for 48 hrs in presence of 12.5 uM cisplatin by MTT assay; assay type: functional
A-375 [42] = test: Synergistic antiproliferative activity against human A-375 cells assessed as combination index at 50 uM incubated for 48 hrs in presence of 6 uM cisplatin by MTT assay; assay type: functional
A-375 [43] = test: Synergistic antiproliferative activity against human A-375 cells assessed as combination index at 35 uM incubated for 48 hrs in presence of 12.5 uM cisplatin by MTT assay; assay type: functional
OVCAR-3 [44] = test: Upregulation of phosphorylated gamma-H2AX level in human OVCAR-3 cells incubated for 48 hrs by Western blot analysis; assay type: functional, cell-based; details: dose 30.0 µM
OVCAR-3 [45] = test: Synergistic antiproliferative activity against human OVCAR-3 cells assessed as combination index at 75 uM incubated for 48 hrs in presence of 12.5 uM cisplatin by MTT assay; assay type: functional

COc1c(-c2ccc(O)c(O)c2)oc2cc(O)cc(O)c2c1=O [3-O-METHYLQUERCETIN]
CI (A549 [1]): 1.24 | CC50 (A549 [2]): 7.4 µM | CI (A549 [3]): 0.94 | solubility kinetic at 24 h, 250 µM [4]: 229 µM (≈ 72.4 µg/mL) | CI (A549 [5]): 1.03 | IC50 (DNA polymerase eta): 10.8 µM | half-life at 4.6 µM [6]: > 1 h | half-life at 2 µM [7]: > 2 h | Activity (HEK293): Non-Toxic | CC50 (OVCAR-3 [8]): 5.2 µM | CI (OVCAR-3 [9]): 2.33 | CC50 (A-375 [10]): 29 µM | CI (A-375 [11]): 0.96 | CI (A-375 [12]): 0.78 | CC50 (OVCAR-3 [13]): 4.8 µM | CI (A549 [14]): 0.96 | CC50 (A549 [15]): 11.9 µM | CC50 at 72 h [16]: 30.5 µM | CC50 (OVCAR-3 [17]): 5.8 µM | CC50 (A549 [18]): 60 µM | CC50 (A-375 [19]): 2 µM | CC50 (A-375 [20]): 0.4 µM | CC50 (A-375 [21]): 0.5 µM | fold change (FC) [22]: >2 | CI (OVCAR-3 [23]): 1.15 | fold change (FC) [24]: >2

O=c1c(OCCCO)c(-c2ccc(O)c(O)c2)oc2cc(O)cc(O)c12
CI (A549 [25]): 0.6 | solubility kinetic at 24 h, 250 µM [4]: 231 µM (≈ 83.2 µg/mL) | CI (A549 [26]): 0.78 | CC50 (OVCAR-3 [27]): 0.27 µM | IC50 (DNA polymerase eta): 14.7 µM | half-life at 4.6 µM [6]: > 1 h | CI (OVCAR-3 [28]): 0.78 | half-life at 2 µM [7]: 1.5 h | CC50 at 48 h [29]: > 100 µM | CI (OVCAR-3 [30]): 0.5 | CC50 (OVCAR-3 [8]): > 100 µM | CI (A549 [31]): 0.8 | CI (A-375 [32]): 0.66 | CC50 (A-375 [10]): > 100 µM | CC50 (OVCAR-3 [33]): 2.8 µM | CC50 (A-375 [34]): 1 µM | CC50 (A549 [35]): 19.7 µM | CC50 (A549 [36]): 9.4 µM | CI (A-375 [12]): 0.23 | Activity (A-375 [37]): Active | CI (OVCAR-3 [38]): 0.52 | CC50 (A-375 [39]): 2.6 µM | Activity (A-375 [40]): Dose-Dependent Effect | CI (A549 [41]): 0.58 | CC50 (OVCAR-3 [17]): 4.8 µM | CI (A-375 [42]): 0.27 | CI (A-375 [43]): 0.78 | CC50 (A549 [18]): > 100 µM | fold change (FC) [22]: >2 | Activity (OVCAR-3 [44]): Dose-Dependent Effect | CI (OVCAR-3 [45]): 0.72 | fold change (FC) [24]: >2
